According to paper PMC4685510, “A Cell Biologist’s Field Guide to Aurora Kinase Inhibitors” (Frontiers in Oncology, 2015):

Key:
Experiment in all cases: biochemical
Assay type in all cases: biochemical
[1] = biological target: 363 human kinases (including Aurora A/B/C) (Homo sapiens, UniProt O14578); conditions: STK21/CIT; for remaining activity at 0.1 µM: 100 nM; for remaining activity at 0.1 µM / remaining activity at 0.5 µM: read-out: % Enzyme Activity (relative to DMSO controls)
Description: (§1) However, the Aurora A/B selectivity ratios derived from our in vitro and in vivo data can be compared to prioritize inhibitors.

[2] = biological target: 363 human kinases (including Aurora A/B/C) (Homo sapiens, UniProt P53350); conditions: PLK1; for remaining activity at 0.1 µM: 100 nM; for remaining activity at 0.1 µM / remaining activity at 0.5 µM: read-out: % Enzyme Activity (relative to DMSO controls)
Description: as §1

[3] = biological target: T1, 363 human kinases (including Aurora A/B/C) (Homo sapiens, UniProt P54762); conditions: EPHB1, [ATP] 100 µM; for remaining activity at 0.1 µM: 100 nM; for remaining activity at 0.1 µM / remaining activity at 0.5 µM: read-out: % Enzyme Activity (relative to DMSO controls)
T1 sequence (P54762 18-984): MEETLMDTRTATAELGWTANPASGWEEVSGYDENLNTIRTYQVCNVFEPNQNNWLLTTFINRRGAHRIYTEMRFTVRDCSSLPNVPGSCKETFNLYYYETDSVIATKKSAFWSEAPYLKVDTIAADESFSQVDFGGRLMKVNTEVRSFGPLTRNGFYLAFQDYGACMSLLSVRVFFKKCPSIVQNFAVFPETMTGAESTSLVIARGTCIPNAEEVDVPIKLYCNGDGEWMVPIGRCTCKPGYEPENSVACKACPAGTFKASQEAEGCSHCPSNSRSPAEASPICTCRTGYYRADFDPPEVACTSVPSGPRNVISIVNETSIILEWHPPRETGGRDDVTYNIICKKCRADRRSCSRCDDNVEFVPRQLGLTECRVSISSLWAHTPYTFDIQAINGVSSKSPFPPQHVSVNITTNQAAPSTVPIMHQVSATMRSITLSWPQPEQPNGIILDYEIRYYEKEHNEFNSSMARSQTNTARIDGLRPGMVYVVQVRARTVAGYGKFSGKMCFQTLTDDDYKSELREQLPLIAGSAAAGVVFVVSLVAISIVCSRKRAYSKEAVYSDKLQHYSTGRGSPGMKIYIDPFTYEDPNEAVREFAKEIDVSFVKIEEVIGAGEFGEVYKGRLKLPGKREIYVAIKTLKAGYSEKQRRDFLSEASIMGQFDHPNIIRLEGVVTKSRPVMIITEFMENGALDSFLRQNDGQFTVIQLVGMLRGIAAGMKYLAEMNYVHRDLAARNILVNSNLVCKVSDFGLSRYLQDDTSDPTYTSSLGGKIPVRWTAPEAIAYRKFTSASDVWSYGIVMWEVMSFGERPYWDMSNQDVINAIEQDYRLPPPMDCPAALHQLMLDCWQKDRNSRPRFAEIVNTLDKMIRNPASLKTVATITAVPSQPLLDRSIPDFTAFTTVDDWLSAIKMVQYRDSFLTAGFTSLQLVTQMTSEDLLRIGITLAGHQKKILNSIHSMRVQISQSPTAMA
Description: as §1

[4] = biological target: 363 human kinases (including Aurora A/B/C) (Homo sapiens, UniProt Q15759); conditions: P38b/MAPK11; for remaining activity at 0.1 µM: 100 nM; for remaining activity at 0.1 µM / remaining activity at 0.5 µM: read-out: % Enzyme Activity (relative to DMSO controls)
Sequence of 363 human kinases (including Aurora A/B/C) (Homo sapiens, UniProt Q15759) (Q15759 whole entry): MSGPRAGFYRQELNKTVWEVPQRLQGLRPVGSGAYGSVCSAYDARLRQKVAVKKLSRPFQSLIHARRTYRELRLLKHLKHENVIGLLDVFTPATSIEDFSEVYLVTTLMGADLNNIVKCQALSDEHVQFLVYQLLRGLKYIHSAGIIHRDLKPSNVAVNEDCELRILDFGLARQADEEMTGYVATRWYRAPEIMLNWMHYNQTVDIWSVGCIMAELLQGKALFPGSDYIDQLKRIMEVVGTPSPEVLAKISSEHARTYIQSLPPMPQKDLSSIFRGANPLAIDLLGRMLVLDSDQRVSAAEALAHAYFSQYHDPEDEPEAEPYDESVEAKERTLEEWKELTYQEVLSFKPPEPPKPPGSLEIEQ
Description: as §1

[5] = biological target: T2, 363 human kinases (including Aurora A/B/C) (Homo sapiens, UniProt Q56UN5); conditions: YSK4/MAP3K19; for remaining activity at 0.1 µM: 100 nM; for remaining activity at 0.1 µM / remaining activity at 0.5 µM: read-out: % Enzyme Activity (relative to DMSO controls)
T2 sequence (Q56UN5 1-1328): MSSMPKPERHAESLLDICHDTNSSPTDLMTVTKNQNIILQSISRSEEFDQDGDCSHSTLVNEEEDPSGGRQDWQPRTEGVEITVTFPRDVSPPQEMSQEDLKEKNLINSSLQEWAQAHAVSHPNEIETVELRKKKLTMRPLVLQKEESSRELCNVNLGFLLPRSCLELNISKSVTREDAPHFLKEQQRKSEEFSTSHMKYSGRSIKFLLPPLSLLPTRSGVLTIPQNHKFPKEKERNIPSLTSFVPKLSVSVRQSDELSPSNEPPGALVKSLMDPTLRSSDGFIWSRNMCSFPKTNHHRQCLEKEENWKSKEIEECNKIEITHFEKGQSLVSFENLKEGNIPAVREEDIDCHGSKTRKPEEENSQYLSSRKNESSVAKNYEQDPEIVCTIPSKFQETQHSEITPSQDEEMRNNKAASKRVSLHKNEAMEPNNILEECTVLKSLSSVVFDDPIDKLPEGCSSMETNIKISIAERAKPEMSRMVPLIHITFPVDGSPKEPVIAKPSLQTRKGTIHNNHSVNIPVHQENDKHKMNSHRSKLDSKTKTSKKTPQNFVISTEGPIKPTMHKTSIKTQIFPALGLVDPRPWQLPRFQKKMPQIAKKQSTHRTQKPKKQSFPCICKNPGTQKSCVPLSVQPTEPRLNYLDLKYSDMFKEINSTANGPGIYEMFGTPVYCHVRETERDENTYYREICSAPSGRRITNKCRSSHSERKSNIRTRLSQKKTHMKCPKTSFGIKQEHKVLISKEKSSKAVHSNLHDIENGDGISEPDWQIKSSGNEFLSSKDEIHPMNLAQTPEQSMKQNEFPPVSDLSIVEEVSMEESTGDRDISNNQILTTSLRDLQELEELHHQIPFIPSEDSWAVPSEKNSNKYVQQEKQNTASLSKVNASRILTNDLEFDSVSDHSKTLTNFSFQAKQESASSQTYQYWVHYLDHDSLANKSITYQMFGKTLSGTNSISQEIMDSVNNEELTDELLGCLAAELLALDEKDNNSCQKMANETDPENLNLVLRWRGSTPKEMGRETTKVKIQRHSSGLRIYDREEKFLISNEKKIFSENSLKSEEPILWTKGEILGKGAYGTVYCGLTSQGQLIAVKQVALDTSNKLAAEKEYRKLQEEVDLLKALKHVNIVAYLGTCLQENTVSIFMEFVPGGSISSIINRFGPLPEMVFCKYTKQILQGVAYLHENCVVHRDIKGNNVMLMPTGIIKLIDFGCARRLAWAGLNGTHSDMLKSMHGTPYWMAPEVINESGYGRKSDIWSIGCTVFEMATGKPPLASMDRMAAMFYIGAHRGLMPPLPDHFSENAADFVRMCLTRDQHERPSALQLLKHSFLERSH
Description: as §1

[6] = biological target: 363 human kinases (including Aurora A/B/C) (Homo sapiens, UniProt Q5S007); conditions: LRRK2; for remaining activity at 0.1 µM: 100 nM; for remaining activity at 0.1 µM / remaining activity at 0.5 µM: read-out: % Enzyme Activity (relative to DMSO controls)
Description: as §1

[7] = biological target: 363 human kinases (including Aurora A/B/C) (Homo sapiens, UniProt Q8N4C8); conditions: MINK/MINK1; for remaining activity at 0.1 µM: 100 nM; for remaining activity at 0.1 µM / remaining activity at 0.5 µM: read-out: % Enzyme Activity (relative to DMSO controls)
Sequence of 363 human kinases (including Aurora A/B/C) (Homo sapiens, UniProt Q8N4C8) (Q8N4C8 whole entry): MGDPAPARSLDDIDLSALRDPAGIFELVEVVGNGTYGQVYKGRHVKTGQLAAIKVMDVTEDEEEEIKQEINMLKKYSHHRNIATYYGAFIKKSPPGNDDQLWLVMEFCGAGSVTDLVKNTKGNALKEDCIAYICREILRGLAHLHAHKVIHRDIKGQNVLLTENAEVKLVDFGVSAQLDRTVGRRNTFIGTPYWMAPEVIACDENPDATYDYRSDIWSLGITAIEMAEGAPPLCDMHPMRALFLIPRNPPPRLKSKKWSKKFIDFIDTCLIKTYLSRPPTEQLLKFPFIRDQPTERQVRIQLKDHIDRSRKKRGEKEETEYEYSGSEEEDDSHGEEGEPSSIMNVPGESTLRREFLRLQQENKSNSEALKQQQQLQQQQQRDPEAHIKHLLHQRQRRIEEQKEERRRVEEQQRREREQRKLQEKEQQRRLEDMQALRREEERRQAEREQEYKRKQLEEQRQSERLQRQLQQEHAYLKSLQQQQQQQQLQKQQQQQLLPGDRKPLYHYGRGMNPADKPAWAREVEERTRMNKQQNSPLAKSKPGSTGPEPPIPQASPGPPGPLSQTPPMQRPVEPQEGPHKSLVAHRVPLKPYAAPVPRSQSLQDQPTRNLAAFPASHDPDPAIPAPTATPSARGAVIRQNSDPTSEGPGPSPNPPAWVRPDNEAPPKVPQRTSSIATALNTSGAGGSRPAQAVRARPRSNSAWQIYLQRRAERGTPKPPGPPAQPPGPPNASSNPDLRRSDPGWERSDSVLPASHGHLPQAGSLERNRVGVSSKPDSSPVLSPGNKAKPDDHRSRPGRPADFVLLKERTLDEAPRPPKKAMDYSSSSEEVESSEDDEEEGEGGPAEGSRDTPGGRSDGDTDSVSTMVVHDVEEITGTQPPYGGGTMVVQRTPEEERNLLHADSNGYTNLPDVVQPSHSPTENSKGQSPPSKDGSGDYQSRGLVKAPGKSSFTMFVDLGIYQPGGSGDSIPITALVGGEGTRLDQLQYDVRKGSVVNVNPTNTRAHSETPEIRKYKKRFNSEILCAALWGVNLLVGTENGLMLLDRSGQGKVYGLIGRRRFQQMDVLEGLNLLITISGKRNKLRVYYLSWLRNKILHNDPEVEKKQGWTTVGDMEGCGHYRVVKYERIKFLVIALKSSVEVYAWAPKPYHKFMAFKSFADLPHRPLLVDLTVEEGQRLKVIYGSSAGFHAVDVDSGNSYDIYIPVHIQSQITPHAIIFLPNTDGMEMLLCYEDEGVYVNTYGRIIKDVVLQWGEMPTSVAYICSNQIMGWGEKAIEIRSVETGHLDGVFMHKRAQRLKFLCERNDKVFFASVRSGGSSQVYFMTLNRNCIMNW
Description: as §1

[8] = biological target: 363 human kinases (including Aurora A/B/C) (Homo sapiens, UniProt Q9H422); conditions: HIPK3; for remaining activity at 0.1 µM: 100 nM; for remaining activity at 0.1 µM / remaining activity at 0.5 µM: read-out: % Enzyme Activity (relative to DMSO controls)
Sequence of 363 human kinases (including Aurora A/B/C) (Homo sapiens, UniProt Q9H422) (Q9H422 whole entry): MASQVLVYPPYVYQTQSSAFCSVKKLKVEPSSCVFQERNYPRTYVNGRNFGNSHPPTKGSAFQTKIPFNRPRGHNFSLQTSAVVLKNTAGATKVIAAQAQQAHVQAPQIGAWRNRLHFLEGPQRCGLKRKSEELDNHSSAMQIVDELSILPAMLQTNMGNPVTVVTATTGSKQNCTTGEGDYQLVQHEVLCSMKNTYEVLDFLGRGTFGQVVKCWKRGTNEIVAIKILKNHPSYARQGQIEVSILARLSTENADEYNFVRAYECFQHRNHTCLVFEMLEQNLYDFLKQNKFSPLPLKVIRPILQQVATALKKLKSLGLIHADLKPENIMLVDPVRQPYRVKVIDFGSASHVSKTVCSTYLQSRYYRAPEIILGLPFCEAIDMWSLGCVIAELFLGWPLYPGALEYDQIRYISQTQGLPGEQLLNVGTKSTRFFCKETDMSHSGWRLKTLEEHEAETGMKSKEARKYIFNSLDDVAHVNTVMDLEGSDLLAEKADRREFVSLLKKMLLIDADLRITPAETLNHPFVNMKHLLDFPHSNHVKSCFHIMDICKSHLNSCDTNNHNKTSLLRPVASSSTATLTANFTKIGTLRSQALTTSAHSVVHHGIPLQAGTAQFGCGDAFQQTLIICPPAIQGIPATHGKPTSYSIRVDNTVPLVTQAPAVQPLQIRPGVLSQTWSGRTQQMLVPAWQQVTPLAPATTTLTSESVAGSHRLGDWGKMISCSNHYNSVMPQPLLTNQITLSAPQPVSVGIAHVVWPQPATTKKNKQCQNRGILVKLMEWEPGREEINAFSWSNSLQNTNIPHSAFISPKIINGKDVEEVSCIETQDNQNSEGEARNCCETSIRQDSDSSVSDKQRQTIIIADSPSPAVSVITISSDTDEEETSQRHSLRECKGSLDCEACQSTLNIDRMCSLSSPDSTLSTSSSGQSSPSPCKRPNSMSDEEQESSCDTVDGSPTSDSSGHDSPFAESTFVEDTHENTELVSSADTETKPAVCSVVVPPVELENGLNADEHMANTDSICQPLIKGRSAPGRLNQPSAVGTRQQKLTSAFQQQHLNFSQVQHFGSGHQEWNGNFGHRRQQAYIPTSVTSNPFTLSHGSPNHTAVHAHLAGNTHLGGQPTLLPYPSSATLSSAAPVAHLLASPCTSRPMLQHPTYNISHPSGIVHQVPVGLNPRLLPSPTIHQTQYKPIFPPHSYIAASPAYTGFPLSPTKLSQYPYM
Description: as §1

Sequence of 363 human kinases (including Aurora A/B/C) (Homo sapiens, UniProt O14578) (O14578 whole entry): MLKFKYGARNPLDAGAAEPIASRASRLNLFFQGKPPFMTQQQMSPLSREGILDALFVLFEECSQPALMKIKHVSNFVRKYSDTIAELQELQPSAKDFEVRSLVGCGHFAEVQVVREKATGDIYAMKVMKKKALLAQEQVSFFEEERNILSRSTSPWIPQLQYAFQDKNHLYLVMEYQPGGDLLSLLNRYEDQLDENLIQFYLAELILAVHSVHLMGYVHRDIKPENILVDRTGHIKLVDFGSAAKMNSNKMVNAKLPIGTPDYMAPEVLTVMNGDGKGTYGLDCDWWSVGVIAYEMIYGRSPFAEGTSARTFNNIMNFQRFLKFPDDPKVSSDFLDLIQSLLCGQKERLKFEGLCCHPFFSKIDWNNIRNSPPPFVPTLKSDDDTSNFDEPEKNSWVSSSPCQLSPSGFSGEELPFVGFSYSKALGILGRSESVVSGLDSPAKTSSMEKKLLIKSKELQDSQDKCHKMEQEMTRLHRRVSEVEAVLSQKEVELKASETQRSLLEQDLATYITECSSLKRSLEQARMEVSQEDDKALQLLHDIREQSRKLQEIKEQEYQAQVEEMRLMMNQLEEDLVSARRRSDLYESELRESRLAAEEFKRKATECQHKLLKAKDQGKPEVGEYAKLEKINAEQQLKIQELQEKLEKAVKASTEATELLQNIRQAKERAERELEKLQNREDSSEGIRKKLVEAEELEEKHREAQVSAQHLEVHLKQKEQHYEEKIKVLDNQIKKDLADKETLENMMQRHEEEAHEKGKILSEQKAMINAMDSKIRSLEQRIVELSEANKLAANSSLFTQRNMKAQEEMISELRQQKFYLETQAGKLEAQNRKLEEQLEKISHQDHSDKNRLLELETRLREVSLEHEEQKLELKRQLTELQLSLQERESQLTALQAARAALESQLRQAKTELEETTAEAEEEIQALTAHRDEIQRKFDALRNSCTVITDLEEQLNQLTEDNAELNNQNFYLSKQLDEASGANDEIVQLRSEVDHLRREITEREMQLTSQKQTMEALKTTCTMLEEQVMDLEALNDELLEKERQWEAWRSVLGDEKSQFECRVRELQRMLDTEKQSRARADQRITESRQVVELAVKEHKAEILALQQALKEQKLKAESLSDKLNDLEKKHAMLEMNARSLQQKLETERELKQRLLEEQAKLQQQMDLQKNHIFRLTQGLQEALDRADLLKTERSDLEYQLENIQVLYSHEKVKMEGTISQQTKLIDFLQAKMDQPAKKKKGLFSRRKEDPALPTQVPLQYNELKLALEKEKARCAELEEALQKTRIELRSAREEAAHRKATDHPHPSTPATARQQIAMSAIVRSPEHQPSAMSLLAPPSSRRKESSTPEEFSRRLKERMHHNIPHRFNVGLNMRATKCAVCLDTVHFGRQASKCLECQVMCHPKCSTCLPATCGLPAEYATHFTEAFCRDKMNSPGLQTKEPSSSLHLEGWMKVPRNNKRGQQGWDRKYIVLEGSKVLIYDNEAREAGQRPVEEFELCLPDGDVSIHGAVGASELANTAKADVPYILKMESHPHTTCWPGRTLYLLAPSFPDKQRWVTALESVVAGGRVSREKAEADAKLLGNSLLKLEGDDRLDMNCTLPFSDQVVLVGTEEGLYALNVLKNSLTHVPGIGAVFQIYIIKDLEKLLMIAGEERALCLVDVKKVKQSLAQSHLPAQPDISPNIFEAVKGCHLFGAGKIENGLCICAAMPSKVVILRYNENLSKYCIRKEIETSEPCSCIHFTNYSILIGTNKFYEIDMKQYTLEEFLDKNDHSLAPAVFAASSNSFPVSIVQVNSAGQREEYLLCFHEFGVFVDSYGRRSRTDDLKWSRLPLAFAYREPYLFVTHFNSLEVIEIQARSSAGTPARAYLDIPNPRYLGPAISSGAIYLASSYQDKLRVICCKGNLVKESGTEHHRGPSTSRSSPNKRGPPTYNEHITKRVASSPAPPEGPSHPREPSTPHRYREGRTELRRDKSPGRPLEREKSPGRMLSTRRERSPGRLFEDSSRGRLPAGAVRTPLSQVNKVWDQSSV

`CCn1cc(-c2ccnc3[nH]c(-c4cccc(CN(C)C)c4)cc23)c(-c2ccc(NC(=O)N(C)C)cc2)n1` [GSK1070916] was tested, and the remaining activity at 0.1 µM [1] was 100%, the remaining activity at 0.1 µM [2] was 96.5% and the remaining activity at 0.1 µM [3] was 89.2%. The remaining activity at 0.1 µM [4] was 94.3%, the remaining activity at 0.1 µM [5] was 99.2% and the remaining activity at 0.1 µM [6] was 92.1%. The remaining activity at 0.1 µM [7] was 78.3% and the remaining activity at 0.1 µM [8] was 106%.
For `O=C(c1cccc(Cl)c1F)N1CCN(Cc2cccc(Nc3nccs3)n2)CC1` [MK-8745], the “% Enzyme Activity (relative to DMSO controls)” value ([1]; 500 nM) was 101.37%, the remaining activity at 0.5 µM ([1]; 500 nM) was 104% and the “% Enzyme Activity (relative to DMSO controls)” value ([2]; 500 nM) was 94.27%. The remaining activity at 0.5 µM ([2]; 500 nM) was 95.1%, the “% Enzyme Activity (relative to DMSO controls)” value ([3]; 500 nM) was 65.66% and the remaining activity at 0.5 µM ([3]; 500 nM) was 65.9%. The “% Enzyme Activity (relative to DMSO controls)” value ([4]; 500 nM) was 92.96%, the remaining activity at 0.5 µM ([4]; 500 nM) was 93.2% and the “% Enzyme Activity (relative to DMSO controls)” value ([5]; 500 nM) was 88.95%. For the same molecule, the remaining activity at 0.5 µM ([5]; 500 nM) was 91.4%, the “% Enzyme Activity (relative to DMSO controls)” value ([6]; 500 nM) was 88.73% and the remaining activity at 0.5 µM ([6]; 500 nM) was 92.8%. For the same molecule, the “% Enzyme Activity (relative to DMSO controls)” value ([7]; 500 nM) was 82.81%, the remaining activity at 0.5 µM ([7]; 500 nM) was 86.8% and the “% Enzyme Activity (relative to DMSO controls)” value ([8]; 500 nM) was 105.35%. The remaining activity at 0.5 µM ([8]; 500 nM) was 105%.
Molecule `O=C(O)[C@]1(Cc2cccc(Nc3nccs3)n2)CC[C@@H](Oc2cccc(Cl)c2F)CC1` [MK-5108] has a remaining activity at 0.1 µM [1] of 115%, a remaining activity at 0.5 µM ([1]; 500 nM) of 102% and a remaining activity at 0.1 µM [2] of 101%. The remaining activity at 0.5 µM ([2]; 500 nM) was 100%, the remaining activity at 0.1 µM [3] was 42.4% and the remaining activity at 0.5 µM ([3]; 500 nM) was 13.9%. For the same molecule, the remaining activity at 0.1 µM [4] was 102%, the remaining activity at 0.5 µM ([4]; 500 nM) was 96% and the remaining activity at 0.1 µM [5] was 16.1%. The remaining activity at 0.5 µM ([5]; 500 nM) was 8.95%, the remaining activity at 0.1 µM [6] was 52.7% and the remaining activity at 0.5 µM ([6]; 500 nM) was 14.2%. The remaining activity at 0.1 µM [7] was 80%, the remaining activity at 0.5 µM ([7]; 500 nM) was 53.4% and the remaining activity at 0.1 µM [8] was 97%. It also gave a remaining activity at 0.5 µM ([8]; 500 nM) of 70%.
